The record followed here is patent publication US7250410B2, “Cyclic nucleotide phosphodiesterase inhibitors, preparation and uses thereof” (Via Pharmaceuticals, Inc., priority 2001, dated 2007).

Where “and” joins values, the source holds several entries; their conditions need not be identical. Equal values may be shown once.

One assay deals with PDE4. Nature of the assay: Inhibition of PDE4, radioenzymatic phosphodiesterase assay. Format: biochemical, bovine. Particulars: Table 1, formula (III); 1 μM cyclic AMP. As to the method: A 3 g segment of bovine aortic media cut into pieces with scissors was homogenized with an ultra-turrax then a potter glass/glass homogenizer in 7 volumes by weight of buffer A containing a protease inhibitor cocktail (20 mM Tris-HCl, 0.25 M saccharose, 2 mM magnesium acetate, 1 mM dithiothreitol, 5 mM EGTA, 2000 U/ml aprotinin, 10 mg/l leupeptin and 10 mg/l soya trypsic inhibitor). The homogenizate was centrifuged at 105,000 g for 1 hour. […] The column was washed until there was no detectable absorption at 280 nm, then eluted with a linear gradient of NaCl (0–0.5 M) in buffer B. 3-ml fractions were collected and enzyme activity was determined under the conditions described hereinafter to localize the different enzymes PDE1, PDE3, PDE4 and PDE5, which were aliquoted and frozen at −80° C.
The nucleoside formed was separated from the nucleotides by anion exchange chromatography. Nucleoside radioactivity was determined by liquid scintillation counting.
With `COc1cc2c(cc1OC)C(c1ccc(-c3ccc(Cl)cc3)cc1)=NN(C)C(=O)C2` [IIIat, 1-[4-(4-chlorophenyl)phenyl]-7,8-dimethoxy-3-methyl-3,5-dihydro-4H-2,3-benzodiazepin-4-one], the IC50 came to 2300 nM.

The compound `COc1cc2c(cc1OC)C(c1ccc(-c3ccccc3OC)cc1)=NN(C)C(=O)C2` [IIIai, 7,8-dimethoxy-1-[4-(2-methoxyphenyl)phenyl]-3-methyl-3,5-dihydro-4H-2,3-benzodiazepin-4-one] yielded an IC50 of 1800 nM.

`COc1cc2c(cc1OC)C(c1ccc(-c3cccc(NC(C)=O)c3)cc1)=NN(C)C(=O)C2` [IIIam, 1-[4-(3-acetamidophenyl)phenyl]-7,8-dimethoxy-3-methyl-3,5-dihydro-4H-2,3-benzodiazepin-4-one] showed an IC50 of 1700 nM.

Staying with this assay, now noted: Table 1, formula (III); compound at 10 μM.
For `CCN1N=C(c2ccccc2)c2cc(OC)c(OC)cc2CC1=O` [IIIag, 3-ethyl-7,8-dimethoxy-1-phenyl-3,5-dihydro-4H-2,3-benzodiazepin-4-one], the “PDE4 percentage inhibition at 10 μM” value was found to be 36%.

The assay is the same for the next values; noted with them: Table 2, formula (XXII); 1 μM cyclic AMP.
With `CCOc1cc2c(cc1OC)C(c1ccccc1)=NC(c1ccccc1)C(=O)N2` (stereo not shown) [XXIIba, 3,5-diphenyl-8-ethoxy-7-methoxy-1,3-dihydro-2H-1,4-benzodiazepin-2-one], 6700 nM corresponded to half-maximal inhibition (IC50).

The same assay, now with this note: Table 2, formula (XXII); compound at 10 μM.
Consider `COc1cc2c(cc1OC)C(c1ccccc1)=NC(CC(C)C)C(=O)N2` (stereo not shown) [XXIIad, 7,8-dimethoxy-3-isobutyl-5-phenyl-1,3-dihydro-2H-1,4-benzodiazepin-2-one], for which the “PDE4 percentage inhibition at 10 μM” value turned out to be 14.9%. Consider `COc1cc2c(cc1OC)C(c1ccccc1)=N[C@@H](CCCCNC(=N)N)C(=O)N2.O=C(O)C(F)(F)F.O=C(O)C(F)(F)F` [XXIIay, N-[4-(7,8-dimethoxy-2-oxo-5-phenyl-2,3-dihydro-1H-1,4-benzodiazepin-3-yl)butyl]guanidinium (S)-bis trifluoroacetate], for which the “PDE4 percentage inhibition at 10 μM” value is on record as 19.6%. The same measure, in the same setting: under `COc1cc2c(cc1OC)C(c1ccccc1)=NC(Cc1c[nH]c3ccccc13)C(=O)N2` (stereo not shown) [XXIIas, 7,8-dimethoxy-3-(1H-indol-3-ylmethyl)-5-phenyl-1,3-dihydro-2H-1,4-benzodiazepin-2-one] stands 41.3%.

Staying with this assay, now noted: Table 3, formula (II); 1 μM cyclic AMP.
`CCN1C(=O)CN=C(c2cccc(Br)c2)c2cc(OC)c(OC)cc21` [IIbm, 5-(3-bromophenyl)-1-ethyl-7,8-dimethoxy-1,3-dihydro-2H-1,4-benzodiazepin-2-one]: 7300 nM corresponded to half-maximal inhibition (IC50). As to `CCN1C(=O)C(Cc2cccc(C(N)=O)c2)N=C(c2ccccc2)c2cc(OC)c(OC)cc21` (stereo not shown) [IIcs, 3-[(1-ethyl-7,8-dimethoxy-2-oxo-5-phenyl-2,3-dihydro-1H-1,4-benzodiazepin-3-yl)methyl]benzamide], half-maximal inhibition (IC50) required 1250 nM. Same read-out and setting: then `CCN1C(=O)C(Cc2cccc(C(F)(F)F)c2)N=C(c2ccccc2)c2cc(OC)c(OC)cc21` (stereo not shown) [IIdb, 1-ethyl-7,8-dimethoxy-5-phenyl-3-[3-(trifluoromethyl)benzyl]-1,3-dihydro-2H-1,4-benzodiazepin-2-one], with 23000 nM.

`COc1cc2c(cc1OC)N(C)C(=O)CN=C2c1cc2ccccc2o1` [IIag, 5-(2-benzo[b]furyl)-7,8-dimethoxy-1-methyl-1,3-dihydro-1,4-benzodiazepin-2-one] showed an IC50 of 4800 nM. Compared with the last compound, the IC50 is about 4.8-fold lower. `COc1cc2c(cc1OC)N(C)C(=O)CN=C2c1cc2ccccc2s1` [IIac, 5-(2-benzo[b]thienyl)-7,8-dimethoxy-1-methyl-1,3-dihydro-1,4-benzodiazepin-2-one] yielded a half-maximal inhibitory concentration (IC50) of 2300 nM. Still for that read-out and setting: under `COc1cc2c(cc1OC)C(c1ccccc1)=NC(c1ccccc1CCNC(C)=O)C(=O)N2` (stereo not shown) [IIcm, N-[2-(7,8-dimethoxy-2-oxo-5-phenyl-2,3-dihydro-1H-1,4-benzodiazepin-3-yl)benzyl]methylacetamide] stands 1900 nM. The same measure, in the same setting: under `COc1cc2c(cc1OC)N(C)C(=O)CN=C2c1ccc(Br)cc1` [IIba, 5-(4-bromophenyl)-7,8-dimethoxy-1-methyl-1,3-dihydro-2H-1,4-benzodiazepin-2-one] stands 17000 nM. Still for that read-out and setting: then `CCN1C(=O)C(Cc2ccccc2Br)N=C(c2ccccc2)c2cc(OC)c(OC)cc21` (stereo not shown) [IIcc, 3-(2-bromobenzyl)-1-ethyl-7,8-dimethoxy-5-phenyl-1,3-dihydro-2H-1,4-benzodiazepin-2-one], with 4970 nM; and `CCN1C(=O)CN=C(c2ccc(C#CCNC(=O)OC(C)(C)C)cc2)c2cc(OC)c(OC)cc21` [IIbo, tert-butyl 3-[4-(1-ethyl-7,8-dimethoxy-2-oxo-2,3-dihydro-1H-1,4-benzodiazepin-5-yl)phenyl]prop-2-ynylcarbamate], with 2920 nM. Take `CCN1C(=O)C(Cc2ccccc2[N+](=O)[O-])N=C(c2ccccc2)c2cc(OC)c(OC)cc21` (stereo not shown) [IIbh, 7,8-dimethoxy-1-ethyl-3-(2-nitrobenzyl)-5-phenyl-1,3-dihydro-2H-1,4-benzodiazepin-2-one]: the IC50 turned out to be 2400 nM. Same read-out and setting: then “[(7,8-dimethoxy-1-ethyl-2-oxo-2,3-dihydro-1H-1,4-benzodiazepin-3-yl)benz-2-yl]carboxamide [IIci]”, with 1450 nM; and `CCN1C(=O)C(Cc2ccccc2C#N)N=C(c2ccccc2)c2cc(OC)c(OC)cc21` (stereo not shown) [IIce, 3-(2-cyanobenzyl)-7,8-dimethoxy-1-ethyl-5-phenyl-1,3-dihydro-2H-1,4-benzodiazepin-2-one], with 880 nM and 1400 nM.

The same assay, now with this note: Table 3, formula (II); compound at 10 μM.
On to `CCN1C(=O)C(Cc2cc(Br)cc(Br)c2)N=C(c2ccccc2)c2cc(OC)c(OC)cc21` (stereo not shown) [IIbx, 3-(3,5-dibromobenzyl)-7,8-dimethoxy-1-ethyl-5-phenyl-1,3-dihydro-2H-1,4-benzodiazepin-2-one], for which the “PDE4 percentage inhibition at 10 μM” value is given as 18%. The same measure, in the same setting: then `CCN1C(=O)C(Cc2ccc(Br)cc2)N=C(c2ccccc2)c2cc(OC)c(OC)cc21` (stereo not shown) [IIcd, 3-(4-bromobenzyl)-1-ethyl-7,8-dimethoxy-5-phenyl-1,3-dihydro-2H-1,4-benzodiazepin-2-one], with 20.1%; and `CCN1C(=O)C(CC#N)N=C(c2ccccc2)c2cc(OC)c(OC)cc21` (stereo not shown) [IIcb, (1-ethyl-7,8-dimethoxy-2-oxo-5-phenyl-2,3-dihydro-1H-1,4-benzodiazepin-3-yl)acetonitrile], with 28.5%. Still for that read-out and setting: under `COc1ccc2c(c1)C(c1ccccc1)=NCC(=O)N2C` [IIdl, 7-methoxy-1-methyl-5-phenyl-1,3-dihydro-2H-1,4-benzodiazepin-2-one] stands 34.6%. As to `C#CCC1N=C(c2ccccc2)c2cc(OC)c(OC)cc2N(CC)C1=O` (stereo not shown) [IIbt, 1-ethyl-7,8-dimethoxy-5-phenyl-3-prop-2-ynyl-1,3-dihydro-2H-1,4-benzodiazepin-2-one], the “PDE4 percentage inhibition at 10 μM” value is recorded as 38.4%.

Take `COc1cc2c(cc1OC)N(C)C(=O)CN=C2N1CCCCC1` [IIar, 7,8-dimethoxy-1-methyl-5-(piperidin-1-yl)-1,3-dihydro-1,4-benzodiazepin-2-one]: the “PDE4 percentage inhibition at 10 μM” value worked out at 0%.

Regarding `CCN1C(=O)CN=C(c2cccc(C#Cc3ccccc3)c2)c2cc(OC)c(OC)cc21` [IIbw, 1-ethyl-7,8-dimethoxy-5-[3-(phenylethynyl)phenyl]-1,3-dihydro-2H-1,4-benzodiazepin-2-one], the “PDE4 percentage inhibition at 10 μM” value worked out at 46.1%.

Staying with this assay, now noted: Table 3, formula (II); compound at 10 μM; 10 µM.
As for `CCN1C(=O)C(Cc2ccc(Cl)cc2)N=C(c2ccccc2)c2cc(OC)c(OC)cc21` (stereo not shown) [IIbq, 3-(4-chlorobenzyl)-1-ethyl-7,8-dimethoxy-5-phenyl-1,3-dihydro-2H-1,4-benzodiazepin-2-one], the “PDE4 percentage inhibition at 10 μM” value came out at 33.8%.

Usually IC50 stands for the concentration at which inhibition is half-maximal. The low end stands for greater potency in that assay, the high end for weaker potency in that assay.
